Source: patent publication US20090275099A1 (priority 2004, published 2009)
“Also recorded” adds a separate entry of the source. Where two headings read alike, the source gives them in different places.

How the values were obtained:
[1] = biological target: T1, mitochondrial F1F0-ATPase (Bos taurus, UniProt P13621+P32876); assay: biochemical; parameters: species or system bovine; conditions: for Ki: oligomycin
[2] = biological target: T1, mitochondrial F1F0-ATPase; assay: biochemical; parameters: species or system bovine; conditions: for Ki: oligomycin; remark: listed apart in the source
[3] = tested on: Ramos B cells; assay: cell death of Ramos B cells, propidium iodide exclusion by flow cytometry, 24 h; assay type: cell-based, human; conditions: Homo sapiens
[4] = tested on: Jurkat cells; assay: early O2− (ROS) response, 1 h; assay type: cell-based
Description: (§1) To detect O2^−, cells are incubated with DHE (10 μM) for 30 min at 37° C. and are analyzed by flow cytometry to measure ethidium fluorescence. Flow analysis of mitochondrial transmembrane potential (ψm) is conducted by labeling cells with DiOC6(3) (20 nM) for 15 min at 37 degrees C. A positive control for disruption of ψm is established using carbonyl cyanide m-chlorophenylhydrazone (CCCP, 50 μM). Caspase activation assays are performed with FAM-VAD-fluoromethylketone. Processing of the substrate is evaluated by flow cytometry.
(§2) Since an early mitochondrial superoxide (O2^−) mediates apoptosis induced by Bz-423, the O2^− response of cells 1 h following incubation with drug was examined, as well as cell death at 24 h, as previously described (see, e.g., Blatt, N. B., et al., 2002 J Clin Invest 110, 1123-1132; incorporated herein by reference in its entirety).

[5] = tested on: Ramos cells; assay: early O2− (ROS) response, 1 h; assay type: cell-based, human; conditions: Homo sapiens, Ramos, 1 h; read-out: ROS EC50 (μM), Ramos cells
Description: as §1, §2

[6] = tested on: Jurkat cells; assay: cell death at 24 h; assay type: cell-based
Description: as §2

[7] = biological target: T2, F1F0-ATPase, OSCP subunit (UniProt P48047); assay: F1F0-ATPase activity in SMPs reconstituted in the presence or absence of the OSCP; assay type: biochemical, bovine; parameters: not tied in print to the reconstitution assay; conditions: FIG. 19C
T2 sequence (P48047 1-213): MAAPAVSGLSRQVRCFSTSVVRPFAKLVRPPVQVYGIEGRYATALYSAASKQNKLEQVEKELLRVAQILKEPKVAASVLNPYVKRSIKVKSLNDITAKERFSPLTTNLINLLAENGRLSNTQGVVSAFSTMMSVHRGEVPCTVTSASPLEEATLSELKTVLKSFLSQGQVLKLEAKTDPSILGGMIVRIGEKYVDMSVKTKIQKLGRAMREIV
Description: An additional OSCP binding assay was conducted. […] Benzodiazepine derivative compounds that bind the OSCP include, but are not limited to: […]

[8] = tested on: panel of cells in Table 7; assay: antiproliferation of Bz-Cl against the panel of cells, 3 d; assay type: cell-based; conditions: after 3 d
[9] = tested on: ornithine decarboxylase (ODC); assay: ODC activity in treated cells (conversion of 3H-ornithine to putrescine); assay type: cell-based, human; conditions: cells treated for 4 h
Description: In these experiments, the conversion of ornithine to putrescine was quantified using ^3H-ornithine. For comparisons, control cells were treated with vehicle control or difluoromethyl ornithine (DFMO), a potent inhibitor of ornithine decarboxylase (like Bz-423, DFMO is a potent anti-proliferative agent). […] The reduction in ODC activity was paralleled by a decrease in ODC protein levels measured under the same conditions.
As described above, Bz-423 induced apoptosis was signaled by an ROS response that arose from MRC complex III as a result of the state 3 to 4 transition. It was next sought to determine if the ROS response, critical for apoptosis, also mediated these effects on ODC. If the ROS was required for the decrease in ODC activity, it would likewise be implicated as potentially part of the anti-proliferative response to Bz-423. To test this, Ramos cells were treated with Bz-423, DFMO, or vehicle control for 4 h. In parallel, a second group of cells was pre-incubated with MnTBAP to limit the ROS and then cultured with Bz-423, DFMO, and vehicle control.

[10] = tested on: Ramos cells; assay: cell culture cytotoxicity assays; assay type: cell-based, human
Description: Like most 1,4-benzodiazepines, Bz-423 binds strongly to bovine serum albumin (BSA), which reduces the effective concentration of drug free in solution. For example, in tissue culture media containing 10% (v/v) fetal bovine serum (FBS), ca. 99% of the drug is bound to BSA. Therefore, cell culture cytotoxicity assays are conducted in media with 2% FBS to reduce binding to BSA and increase the free [Bz-423]. Under these conditions, the dose response-curve is quite sharp such that there is a limited concentration range at which Bz-423 is only partly effective. Since some benzodiazepines are known to have anti-proliferative properties, the effect of Bz-423 at concentrations <ED50 were carefully analyzed and observed that in addition to inducing apoptosis, Bz-423 prevented cell growth after 3 d in culture. In these low serum conditions, the cytotoxic and anti-proliferative effects overlapped making it difficult to study each effect independently. […] While higher amounts of drug may also block proliferation, it caused apoptosis well before the effects on proliferation could be observed.
To confirm the decrease in cell number relative to control cells after 3 d of treatment is due to decreased proliferation and not cell death balanced by proliferation, in addition to cell counting, cell divisions were studied. PKH-67 is a fluorescent probe that binds irreversibly to cell membranes and upon cell division is partitioned equally between the daughter cells, making it possible to quantify cell division by flow cytometry. Ramos cells stained with PKH67 and treated with Bz-423 had fewer cell divisions at sub-cytotoxic concentrations which confirmed that the decrease in cell number was due to anti-proliferative affects and not cell death. To determine if Bz-423 induced anti-proliferation was specific to Ramos cells, cell counting and cell cycle experiments were done in other B cell lines and cell lines derived from solid tumors.

[11] = biological target: T3, human OSCP (Homo sapiens, UniProt P48047); assay: OSCP binding by quenching of intrinsic protein fluorescence
T3 construct: made in house; host or cells: E. coli
From the text: To determine if Bz-423 indeed binds to the OSCP and the affinity of the interaction, human OSCP was overexpressed in E. coli. […] Bz-423 is the only known inhibitor of the ATPase that functions through binding to the OSCP.

[12] = biological target: F1F0-ATPase (Homo sapiens, UniProt P05496+P48047); conditions: read-out: IC50 for oligomycin; cited from earlier work
[13] = biological target: F1F0-ATPase (Bos taurus, UniProt P13621+P32876); assay: off-rate measurements, recovery of ATP synthesis of SMPs after dilution; assay type: biochemical, bovine
Description: Inhibition of Na,K-ATPases with oligomycin is time-dependent and results from a slow rate of dissociation from the enzyme (0.05 s^−1) (see, e.g., Esmann, M. (1991) Biochim. Biophys. Acta 1064, 31-36; herein incorporated by reference in its entirety). Since time-dependent inhibition can have profound effects on the function of the F1F0-ATPase, the off-rate of Bz-423 and oligomycin during ATP synthesis was examined. […] Inhibited SMP suspensions were diluted into buffer and activity was measured over time. Enzymatic activity of the SMPs incubated with Bz-423 had recovered to 90% of control at 10 s, indicating rapid dissociation (see, FIG. 18). In contrast, the activity of the enzyme incubated with oligomycin was only 54% of the uninhibited activity at 10 s, and increased for several minutes after dilution (see, FIG. 18). The time-dependence of the recovery of activity fit to a single exponential yielding an apparent dissociation rate constant for Bz-423>0.3 s^−1. However, dissociation of oligomycin was complex and a portion of the inhibitor dissociated at least 10-fold slower, consistent with a tight-binding, slow-dissociating inhibitor (see, e.g., Morrison, J. F., and Walsh, C. T. (1988) Adv. Enzymol. Relat. Areas Mol. Biol. 61, 201-301; herein incorporated by reference in its entirety). Presumably, the constraints of a high-affinity inhibitor dissociating from the membrane embedded proton channel presented a significant barrier for dissociation resulting in a slow off-rate.
Off-rate measurements. Rate of inhibition of ATP synthesis was measured as described above with the following changes. A 20 μL aliquot of SMPs (1 mg mL^−1) in synthesis buffer (with 10 mM K2HPO4) was added to each well of a 96-well plate containing 2.5 μL of 100× drug (14 μM Bz-423 and 35 nM oligomycin, final) or DMSO vehicle control. The drug was diluted out by adding 200 μL of synthesis buffer to each well. Substratecoupling mixture (25 μL with 1 mM ADP) was added to each well at the indicated time point and the rate of NADP^+ reduction was monitored over time.

[14] = tested on: Na,K-ATPases; conditions: cited from earlier work
[15] = rodents, two daily doses; cited from earlier work
[16] = tested on: ATP synthesis; assay: cellular ATP synthesis (FIG. 15); assay type: cell-based
Description: The following four compounds were exposed to cells, and ATP synthesis measured: […]

[17] = Jurkat cells, 75 μM PK11195, with or without antioxidant pre-incubation
[18] = hydrolysis, three-dimensional fit
[19] = synthesis, three-dimensional fit

Structure (SMILES): CCC(C)N(C)C(=O)c1cc2ccccc2c(-c2ccccc2Cl)n1 (stereo not shown) [PK11195]
- inhibition of mitochondrial ATPase activity ([1]; 80 μM): do not significantly inhibit mitochondrial ATPase activity
- EC50 ([1]; bovine SMPs, read-out: ATPase activity EC50 (μM), Hydrolysis): 230 µM
- EC50 ([2]; bovine SMPs, read-out: ATPase activity EC50 (μM), Synthesis): 33 µM
- EC50 ([3]; Ramos, 24 h, read-out: Cell death EC50 (μM), Ramos cells): 90 µM
- EC50 ([3]; Ramos B cells, 24 h (Table 6), read-out: EC50 (μM), cell death): > 80 µM
- EC50 ([4]; Homo sapiens, Jurkat, 1 h, read-out: ROS EC50 (μM), Jurkat cells): 56 µM
- % ROS+ [4, 17]: 67.9 ± 5.0%
- EC50 [5]: 100 µM
- EC50 ([6]; Homo sapiens, Jurkat, 24 h, read-out: Cell death EC50 (μM), Jurkat cells): 75 µM
- % Cell death [6, 17]: 85.5 ± 1.7%
- dependence of F1F0-ATPase inhibition on the OSCP [7]: more potent inhibitor of F1F0-ATPase activity in the presence of the OSCP

Structure (SMILES): CN1C(=O)C(Cc2ccc3ccccc3c2)N=C(c2ccc(Cl)cc2)c2cc(Cl)ccc21 (stereo not shown) [Bz-Cl]
- effect on proliferation compared with Bz-423 [8]: reduced proliferation to a similar extent as Bz-423
- effect on ODC activity [9]: inhibited ODC activity
- decrease of cytotoxic activity compared to Bz-423 [10]: ~80%
- Kd [11]: ~5 µM

Structure (SMILES): CC[C@H]1/C=C/C=C/C[C@@H](C)[C@H](O)[C@@](C)(O)C(=O)[C@@H](C)[C@H](O)[C@@H](C)C(=O)[C@@H](C)[C@H](O)[C@@H](C)/C=C/C(=O)O[C@@H]2[C@H](C)[C@H](CC1)O[C@]1(CC[C@H](C)[C@H](C[C@@H](C)O)O1)[C@H]2C [oligomycin, reference compound]
- Mechanism of inhibition ([1]; hydrolysis): noncompetitive inhibitor; also recorded: Non-competitive
- nE, cooperativity factor for competitive inhibition constant ([1]; hydrolysis): 1.1 ± 0.3
- nES, cooperativity factor for uncompetitive inhibition constant ([1]; hydrolysis): 1.2 ± 0.1
- Ki ([1]; hydrolysis, read-out: Ki (E)): 11 ± 3 nM
- Ki ([1]; hydrolysis, read-out: Ki (ES)): 13 ± 1 nM
- K∞ [1, 18]: 0.12 ± 0.02 mM
- Vmax [1, 18]: 0.77 ± 0.03 µmol/min/mg
- Ki ([2]; Ki (E), synthesis): 10.5 ± 0.9 nM
- Ki ([2]; Ki (ES), synthesis): 12 ± 1 nM
- Mechanism of inhibition ([2]; synthesis): mixed inhibitor
- nE, cooperativity factor for competitive inhibition constant ([2]; synthesis): 3.6 ± 0.5
- nES, cooperativity factor for uncompetitive inhibition constant ([2]; synthesis): 1.6 ± 0.3
- K∞ [2, 19]: 0.12 ± 0.01 mM
- Vmax [2, 19]: 0.089 ± 0.003 µmol/min/mg
- IC50 [12]: 10 nM
- slower dissociation of a portion of the inhibitor [13]: at least 10 fold
- reduction of F1F0-ATPase activity at the concentration produced after dilution ([13]; 1.4 μM Bz-423, 3.5 nM oligomycin): 15%
- ATP synthesis activity relative to that in the absence of inhibitor ([13]; 14 μM Bz-423 or 35 nM oligomycin): 14%
- enzymatic activity recovered after dilution, % of control ([13]; at 10 s after dilution): 54%
- rate of dissociation from the enzyme [14]: 0.05 s⁻¹
- LD50 for oligomycin [15]: 0.5 mg/kg

Structure (SMILES): CN1C(=O)C(c2ccccc2)NC(c2ccc(O)cc2)c2cc(Cl)ccc21 (stereo not shown)
- inhibition of cellular ATP synthesis [16]: did inhibit ATP synthesis
